Laboratory results as given in patent US9393316B2, “Cancer targeting peptides for enhancing anti-cancer drug delivery and therapeutic efficiencies” (priority 2014, dated 2016).

Columns and labels:
[1] = system: HCT116 cells; experiment: ELISA screening of phage clones on HCT116 cells (cellular ELISA); format: binding, human; settings: HCT116, cell line panel
Protocol: (§1) The selected phages were further identified by ELISA screening. 1×10^4 cells were seeded into each well of 96-well ELISA plates (Falcon, Calif., USA) overnight and were fixed with 2% paraformaldehyde or methanol/acetone (1:1) for 10 min at RT. The plates were washed twice with PBS and were blocked with 1% BSA in PBS (w/v) for 30 min at RT. Then individual phage clones were added and incubated for 1 hr at RT. Following washing three times with PBS, the plates were incubated with horseradish peroxidase (HRP)-conjugated mouse anti-M13 phage antibody (GE Healthcare) at 1:2000 dilution for 1 hr at RT. The plates were washed three times with PBS again, and were subsequently incubated with the peroxidase substrate o-phenylenediamine dihydrochloride (OPD; Sigma) plus H2O2. The reaction was terminated by 3 N HCl, and the absorbance was measured using microplate reader (Model 680, BioRad) at 490 nm.

[2] = system: COLO205; experiment: Flow cytometry surface binding of phage clones; set-up: species or system human
Protocol: (§2) Cells were grown to 70-80% confluence and were harvested with 10 mM EDTA in PBS. Peripheral blood mononuclear cells were prepared by using Ficoll-Paque Plus density gradient separation. After washing and suspending the cells with FACS buffer (PBS containing 1% fetal bovine serum), the cells were incubated for 1 hr at 4° C. with 5×10^9, 1×10^9 cfu individual phage clones or control phage, respectively. After washing twice with FACS buffer, cells were incubated with mouse anti-M13 monoclonal antibody (GE Healthcare) at 1:2000 dilution for 1 hr followed by 30 min with phycoerythrin (PE)-conjugated goat anti-mouse secondary antibody (Jackson ImmunoResearch) at 1:250 dilution at 4° C. The emission fluorescence signals were measured using FACSCantoll (Becton Dickinson) and were analyzed by FlowJo software.

[3] = system: HCT116 cells; experiment: Flow cytometry surface binding of phage clones; set-up: species or system human
Protocol: as §2

[4] = system: HT29; experiment: Flow cytometry surface binding of phage clones; set-up: species or system human
Protocol: as §2

[5] = system: LS174T; experiment: Flow cytometry surface binding of phage clones; set-up: species or system human
Protocol: as §2

[6] = system: SW620; experiment: Flow cytometry surface binding of phage clones; set-up: species or system human
Protocol: as §2

[7] = system: peripheral blood mononuclear cells (PBMC); experiment: Flow cytometry binding of phage clones to normal cells; settings: human PBMC
Protocol: as §2

[8] = system: HCT116 xenografts; experiment: In vivo tumor homing, phage titer in tumor and organs; set-up: species or system mice; settings: 2×10^11 pfu i.v., PBS perfusion; vs brain, lungs, heart
Protocol: Non-obese diabetic-severe combined immunodeficiency (NOD/SCID) mice were injected subcutaneously (s.c.) into the dorsolateral flank with 5×10^6 HCT116 cells. When the xenograft tumor size reached 300±50 mm^3, the mice were injected intravascularly (i.v.) with 2×10^11 pfu of the targeting phage or control phage M13KO7. Seven min after injection, the mice were sacrificed and perfused through the heart with 50 mL of PBS to wash unbound phages. After perfusion, xenograft tumor and mouse organs were taken out, washed three times with cold PBS, and cut into pans, with some of them homogenized. The phages bound to each tissue sample were recovered by log-phase Escherichia coli ER2738 culture and were titered on LB/IPTG/X-Gal agar plates. In peptide competitive inhibition experiments, 2×10^9 pfu of phage was co-injected with 100 μg of corresponding peptide or an unrelated control peptide.
To investigate the targeting ability of the selected phage clones in vivo, mice bearing HCT116 xenografts (300 mm^3) were injected with 2×10^11 pfu of either the selected phages or control phage through the tail vein. Phages were circulated and then were perfused with PBS buffer to wash out non-specific binders in circulation. After perfusion, we recovered and determined the […] of phage in tumor masses and normal organs.

[9] = system: HCT116 xenografts; experiment: Immunohistochemical localization of phages in xenograft tumor and organs; format: in vivo, mice; settings: tumor vs brain, heart, lungs, colon
Protocol: The tissue samples from in vivo phage homing experiment were embedded in frozen blocks. To evaluate the phage distribution in each tissue by immunohistochemistry, the frozen specimens were cut to 8-μm-thick sections and were collected on coated slides. The slides were washed with cold PBS to remove OCT and were fixed with 4% paraformaldehyde for 10 min at RT. To block endogenous peroxidase activity, the slides were soaked with 3% hydrogen peroxide in methanol for 30 min at RT. The nonspecific antibody binding sites were blocked by immersing the section with 1% BSA in PBS for 30 min at RT. The tissue sections were incubated with mouse anti-M13 monoclonal antibody at 1:250 dilution for 1 hr, followed by adding Super Enhancer reagent (Super SENSITIVE™ Polymer HRP Detection System/DAB, BioGenex) for 20 min and Poly-HRP reagent (BioGenex) for 30 min. After washing, the sections were developed with DAB (3,3′-diaminobenzidine) Chromogen (BioGenex) supplemented with Stable DAB buffer. The reaction was stopped by adding PBS. For nuclei staining, the slides were immersed in hematoxylin for 5 min, and were then mounted with mounting solution to terminate the reaction. The images of sections were taken and analyzed using automated acquisition system (TissueGnostics).

[10] = system: 1112SK; experiment: Cellular ELISA of phage clones; format: binding, human
Protocol: as §1, with “nm. To evaluate the binding activities of the three selected phage clones to various human cancer cell lines, cellular ELISA was performed to detect sixteen types of human cancer cell lines, including A498, HTB-10, B16-F10, SKOV3, PC-3, U2OS, 1112SK, […], SAS, H460, MIA Paca-2, HCT116, HUVAC, CL1-5, Mahlavu, and MDA-MB-231.” for “nm.”

[11] = system: A498; experiment: Cellular ELISA of phage clones; format: binding, human
Protocol: as §1, with “nm. To evaluate the binding activities of the three selected phage clones to various human cancer cell lines, cellular ELISA was performed to detect sixteen types of human cancer cell lines, including A498, HTB-10, B16-F10, SKOV3, PC-3, U2OS, 1112SK, […], SAS, H460, MIA Paca-2, HCT116, HUVAC, CL1-5, Mahlavu, and MDA-MB-231.” for “nm.”

[12] = system: CL1-5; experiment: Cellular ELISA of phage clones; format: binding, human
Protocol: as §1, with “nm. To evaluate the binding activities of the three selected phage clones to various human cancer cell lines, cellular ELISA was performed to detect sixteen types of human cancer cell lines, including A498, HTB-10, B16-F10, SKOV3, PC-3, U2OS, 1112SK, […], SAS, H460, MIA Paca-2, HCT116, HUVAC, CL1-5, Mahlavu, and MDA-MB-231.” for “nm.”

[13] = system: H184; experiment: Cellular ELISA of phage clones; format: binding, human
Protocol: as §1, with “nm. To evaluate the binding activities of the three selected phage clones to various human cancer cell lines, cellular ELISA was performed to detect sixteen types of human cancer cell lines, including A498, HTB-10, B16-F10, SKOV3, PC-3, U2OS, 1112SK, […], SAS, H460, MIA Paca-2, HCT116, HUVAC, CL1-5, Mahlavu, and MDA-MB-231.” for “nm.”

[14] = system: H460; experiment: Cellular ELISA of phage clones; format: binding, human
Protocol: as §1, with “nm. To evaluate the binding activities of the three selected phage clones to various human cancer cell lines, cellular ELISA was performed to detect sixteen types of human cancer cell lines, including A498, HTB-10, B16-F10, SKOV3, PC-3, U2OS, 1112SK, […], SAS, H460, MIA Paca-2, HCT116, HUVAC, CL1-5, Mahlavu, and MDA-MB-231.” for “nm.”

[15] = system: HTB-10; experiment: Cellular ELISA of phage clones; format: binding, human
Protocol: as §1, with “nm. To evaluate the binding activities of the three selected phage clones to various human cancer cell lines, cellular ELISA was performed to detect sixteen types of human cancer cell lines, including A498, HTB-10, B16-F10, SKOV3, PC-3, U2OS, 1112SK, […], SAS, H460, MIA Paca-2, HCT116, HUVAC, CL1-5, Mahlavu, and MDA-MB-231.” for “nm.”

[16] = system: HUVAC; experiment: Cellular ELISA of phage clones; format: binding, human
Protocol: as §1, with “nm. To evaluate the binding activities of the three selected phage clones to various human cancer cell lines, cellular ELISA was performed to detect sixteen types of human cancer cell lines, including A498, HTB-10, B16-F10, SKOV3, PC-3, U2OS, 1112SK, […], SAS, H460, MIA Paca-2, HCT116, HUVAC, CL1-5, Mahlavu, and MDA-MB-231.” for “nm.”

[17] = system: MDA-MB-231; experiment: Cellular ELISA of phage clones; format: binding, human
Protocol: as §1, with “nm. To evaluate the binding activities of the three selected phage clones to various human cancer cell lines, cellular ELISA was performed to detect sixteen types of human cancer cell lines, including A498, HTB-10, B16-F10, SKOV3, PC-3, U2OS, 1112SK, […], SAS, H460, MIA Paca-2, HCT116, HUVAC, CL1-5, Mahlavu, and MDA-MB-231.” for “nm.”

[18] = system: MIA Paca-2; experiment: Cellular ELISA of phage clones; format: binding, human
Protocol: as §1, with “nm. To evaluate the binding activities of the three selected phage clones to various human cancer cell lines, cellular ELISA was performed to detect sixteen types of human cancer cell lines, including A498, HTB-10, B16-F10, SKOV3, PC-3, U2OS, 1112SK, […], SAS, H460, MIA Paca-2, HCT116, HUVAC, CL1-5, Mahlavu, and MDA-MB-231.” for “nm.”

[19] = system: Mahlavu; experiment: Cellular ELISA of phage clones; format: binding, human
Protocol: as §1, with “nm. To evaluate the binding activities of the three selected phage clones to various human cancer cell lines, cellular ELISA was performed to detect sixteen types of human cancer cell lines, including A498, HTB-10, B16-F10, SKOV3, PC-3, U2OS, 1112SK, […], SAS, H460, MIA Paca-2, HCT116, HUVAC, CL1-5, Mahlavu, and MDA-MB-231.” for “nm.”

[20] = system: PC-3; experiment: Cellular ELISA of phage clones; format: binding, human
Protocol: as §1, with “nm. To evaluate the binding activities of the three selected phage clones to various human cancer cell lines, cellular ELISA was performed to detect sixteen types of human cancer cell lines, including A498, HTB-10, B16-F10, SKOV3, PC-3, U2OS, 1112SK, […], SAS, H460, MIA Paca-2, HCT116, HUVAC, CL1-5, Mahlavu, and MDA-MB-231.” for “nm.”

[21] = system: SAS; experiment: Cellular ELISA of phage clones; format: binding, human
Protocol: as §1, with “nm. To evaluate the binding activities of the three selected phage clones to various human cancer cell lines, cellular ELISA was performed to detect sixteen types of human cancer cell lines, including A498, HTB-10, B16-F10, SKOV3, PC-3, U2OS, 1112SK, […], SAS, H460, MIA Paca-2, HCT116, HUVAC, CL1-5, Mahlavu, and MDA-MB-231.” for “nm.”

[22] = system: SKOV3; experiment: Cellular ELISA of phage clones; format: binding, human
Protocol: as §1, with “nm. To evaluate the binding activities of the three selected phage clones to various human cancer cell lines, cellular ELISA was performed to detect sixteen types of human cancer cell lines, including A498, HTB-10, B16-F10, SKOV3, PC-3, U2OS, 1112SK, […], SAS, H460, MIA Paca-2, HCT116, HUVAC, CL1-5, Mahlavu, and MDA-MB-231.” for “nm.”

[23] = system: U2OS; experiment: Cellular ELISA of phage clones; format: binding, human
Protocol: as §1, with “nm. To evaluate the binding activities of the three selected phage clones to various human cancer cell lines, cellular ELISA was performed to detect sixteen types of human cancer cell lines, including A498, HTB-10, B16-F10, SKOV3, PC-3, U2OS, 1112SK, […], SAS, H460, MIA Paca-2, HCT116, HUVAC, CL1-5, Mahlavu, and MDA-MB-231.” for “nm.”

[24] = system: B16-F10; experiment: Cellular ELISA of phage clones; format: binding, mouse
Protocol: as §1, with “nm. To evaluate the binding activities of the three selected phage clones to various human cancer cell lines, cellular ELISA was performed to detect sixteen types of human cancer cell lines, including A498, HTB-10, B16-F10, SKOV3, PC-3, U2OS, 1112SK, […], SAS, H460, MIA Paca-2, HCT116, HUVAC, CL1-5, Mahlavu, and MDA-MB-231.” for “nm.”

binding activity by FACS [2]: weak affinity | binding activity by FACS [4]: high binding affinity | binding activity by FACS [5]: moderate affinity | binding activity by FACS [6]: high binding affinity | binding by cellular ELISA [10]: highly specific binding | binding by cellular ELISA [11]: highly specific binding | binding by cellular ELISA [12]: moderate binding | binding by cellular ELISA [13]: highly specific binding | binding by cellular ELISA [14]: highly specific binding | binding by cellular ELISA [15]: moderate binding | binding by cellular ELISA [16]: highly specific binding | binding by cellular ELISA [17]: highly specific binding | binding by cellular ELISA [18]: highly specific binding | binding by cellular ELISA [19]: highly specific binding | binding by cellular ELISA [20]: highly specific binding | binding by cellular ELISA [21]: highly specific binding | binding by cellular ELISA [22]: highly specific binding | binding by cellular ELISA [23]: highly specific binding | binding by cellular ELISA [24]: highly specific binding
Sequence: TSVSIVSTVLTP [HCT69]
binding by cellular ELISA [1]: highly specific binding | cell surface-binding activity by flow cytometry [3]: high binding affinity | binding activity to PBMC (normal cells) by FACS [7]: not to normal cells | phage accumulation in tumor mass vs normal organs (phage titer) [8]: significantly accumulated in the tumor mass | phage localization by immunostaining of tissue sections [9]: selectively localized in tumor tissues | phage localization by immunostaining of tissue sections ([9]; listed as HCT-69): strong accumulated in the tumor
